According to patent US8076487B2, “Pyridone derivative and herbicide” (Kumiai Chemical Industry Co., Ltd., priority 2006, dated 2011):

Key:
Assay in all cases: Test Example 1: herbicidal effect by soil application to paddy field
Type in all cases: in vivo
Details in all cases: paddy field soil application; active ingredient 1,000 g per 1 hectare; wettable powder added dropwise to water surface the day after sowing; examined on the 21st day after application
[1] = test system: heartshape false pickerelweed (Monochoria vaginalis (Burm.f.) C.Presl)
Source text: (§1) Test Example 1 Test on Herbicidal Effect by Soil Application to Paddy Field In a 100 cm2 plastic pot, paddy field soil was filled. After puddling and leveling, seeds of early watergrass (Echinochloa oryzicola […] (Monochoria vaginalis ([…] Japanese bulrush (Scirpus juncoides Roxb.) were sown, and water was filled to be flooded to a water depth of 3 cm. […] Then, on the 21st day after the application to the plants grew in a greenhouse, the herbicidal effect was examined in accordance with a standard shown in Table 34. [table]

[2] = test system: early watergrass (Echinochloa oryzicola Vasing)
Source text: as §1

[3] = test system: Japanese bulrush (Scirpus juncoides Roxb.)
Source text: as §1

Row | SMILES | herbicidal effect, Monochoria vaginalis (Burm. f.) C. Presl [1] | herbicidal effect, Echinochloa oryzicola Vasing [2] | herbicidal effect, Scirpus juncoides Roxb. [3]
1 | Cn1ncc(C(=O)c2ccc(C(F)(F)F)n(CC[S+](C)[O-])c2=O)c1O (stereo not drawn) [IV-52] | 4 (70 to less than 90% of herbicidal effect and crop phytotoxicity) | 4 (70 to less than 90% of herbicidal effect and crop phytotoxicity) | 4 (70 to less than 90% of herbicidal effect and crop phytotoxicity)
2 | CCCS(=O)(=O)Oc1c(C(=O)c2ccc(C(F)(F)F)n(CC[S+](C)[O-])c2=O)cnn1C (stereo not drawn) [IV-53] | 4 (70 to less than 90% of herbicidal effect and crop phytotoxicity) | 4 (70 to less than 90% of herbicidal effect and crop phytotoxicity) | 4 (70 to less than 90% of herbicidal effect and crop phytotoxicity)
3 | CSCCCn1c(C(F)(F)F)ccc(C(=O)c2cnn(C)c2O)c1=O [IV-56] | 5 (90% or more of herbicidal effect and crop phytotoxicity) | 5 (90% or more of herbicidal effect and crop phytotoxicity) | 5 (90% or more of herbicidal effect and crop phytotoxicity)
4 | CCCS(=O)(=O)Oc1c(C(=O)c2ccc(C(F)(F)F)n(CCCSC)c2=O)cnn1C [IV-57] | 5 (90% or more of herbicidal effect and crop phytotoxicity) | 5 (90% or more of herbicidal effect and crop phytotoxicity) | 2 (30 to less than 50% of herbicidal effect and crop phytotoxicity)
5 | CCCS(=O)(=O)Oc1c(C(=O)c2ccc(C(F)(F)F)n(CCC[S+](C)[O-])c2=O)cnn1C (stereo not drawn) [IV-59] | 4 (70 to less than 90% of herbicidal effect and crop phytotoxicity) | 4 (70 to less than 90% of herbicidal effect and crop phytotoxicity) | 3 (50 to less than 70% of herbicidal effect and crop phytotoxicity)
6 | Cn1ncc(C(=O)c2ccc(C(F)(F)F)n(CCCS(C)(=O)=O)c2=O)c1O [IV-60] | 5 (90% or more of herbicidal effect and crop phytotoxicity) | 5 (90% or more of herbicidal effect and crop phytotoxicity) | 5 (90% or more of herbicidal effect and crop phytotoxicity)
7 | CCCS(=O)(=O)Oc1c(C(=O)c2ccc(C(F)(F)F)n(CCCS(C)(=O)=O)c2=O)cnn1C [IV-61] | 5 (90% or more of herbicidal effect and crop phytotoxicity) | 5 (90% or more of herbicidal effect and crop phytotoxicity) | 5 (90% or more of herbicidal effect and crop phytotoxicity)
8 | COc1ccccc1-n1c(C(F)(F)F)ccc(C(=O)c2cnn(C)c2O)c1=O [IV-64] | 5 (90% or more of herbicidal effect and crop phytotoxicity) | 5 (90% or more of herbicidal effect and crop phytotoxicity) | 5 (90% or more of herbicidal effect and crop phytotoxicity)
9 | COc1ccc(-n2c(C(F)(F)F)ccc(C(=O)c3cnn(C)c3O)c2=O)cc1 [IV-66] | 5 (90% or more of herbicidal effect and crop phytotoxicity) | 5 (90% or more of herbicidal effect and crop phytotoxicity) | 5 (90% or more of herbicidal effect and crop phytotoxicity)
10 | CCCS(=O)(=O)Oc1c(C(=O)c2ccc(C(F)(F)F)n(-c3cccc([S+](C)[O-])c3)c2=O)cnn1C (stereo not drawn) [IV-73] | 3 (50 to less than 70% of herbicidal effect and crop phytotoxicity) | 4 (70 to less than 90% of herbicidal effect and crop phytotoxicity) | 4 (70 to less than 90% of herbicidal effect and crop phytotoxicity)
11 | CCCS(=O)(=O)Oc1c(C(=O)c2ccc(C(F)(F)F)n(-c3cccc(S(C)(=O)=O)c3)c2=O)cnn1C [IV-75] | 5 (90% or more of herbicidal effect and crop phytotoxicity) | 5 (90% or more of herbicidal effect and crop phytotoxicity) | 5 (90% or more of herbicidal effect and crop phytotoxicity)
12 | COc1ccc(-n2c(C(F)(F)F)ccc(C(=O)c3cnn(C)c3O)c2=O)c(OC)c1 [IV-76] | 5 (90% or more of herbicidal effect and crop phytotoxicity) | 4 (70 to less than 90% of herbicidal effect and crop phytotoxicity) | 5 (90% or more of herbicidal effect and crop phytotoxicity)
13 | CCCS(=O)(=O)Oc1c(C(=O)c2ccc(C(F)(F)F)n(-c3ccc(Cl)c(OC)c3)c2=O)cnn1C [IV-91] | 4 (70 to less than 90% of herbicidal effect and crop phytotoxicity) | 4 (70 to less than 90% of herbicidal effect and crop phytotoxicity) | 5 (90% or more of herbicidal effect and crop phytotoxicity)
14 | COc1cccc(Cn2c(C(F)(F)F)ccc(C(=O)c3cnn(C)c3O)c2=O)c1 [IV-103] | 5 (90% or more of herbicidal effect and crop phytotoxicity) | 4 (70 to less than 90% of herbicidal effect and crop phytotoxicity) | 4 (70 to less than 90% of herbicidal effect and crop phytotoxicity)
15 | CCCS(=O)(=O)Oc1c(C(=O)c2ccc(C(F)(F)F)n(Cc3cccc(OC)c3)c2=O)cnn1C [IV-104] | 5 (90% or more of herbicidal effect and crop phytotoxicity) | 5 (90% or more of herbicidal effect and crop phytotoxicity) | 4 (70 to less than 90% of herbicidal effect and crop phytotoxicity)
16 | Cn1ncc(C(=O)c2ccc(C(F)(F)F)n(CC3CCCO3)c2=O)c1OC(=O)c1ccc(C(C)(C)C)cc1 (stereo not drawn) [IV-132] | 5 (90% or more of herbicidal effect and crop phytotoxicity) | 5 (90% or more of herbicidal effect and crop phytotoxicity) | 5 (90% or more of herbicidal effect and crop phytotoxicity)
17 | Cn1ncc(C(=O)c2ccc(C(F)(F)F)n(CC3CCCO3)c2=O)c1OC(=O)c1c(F)cc(F)cc1F (stereo not drawn) [IV-134] | 5 (90% or more of herbicidal effect and crop phytotoxicity) | 5 (90% or more of herbicidal effect and crop phytotoxicity) | 5 (90% or more of herbicidal effect and crop phytotoxicity)
18 | Cc1cc(C)c(C(=O)Oc2c(C(=O)c3ccc(C(F)(F)F)n(CC4CCCO4)c3=O)cnn2C)c(C)c1 (stereo not drawn) [IV-135] | 5 (90% or more of herbicidal effect and crop phytotoxicity) | 5 (90% or more of herbicidal effect and crop phytotoxicity) | 5 (90% or more of herbicidal effect and crop phytotoxicity)
19 | Cn1ncc(C(=O)c2ccc(C(F)(F)F)n(CC3CCCO3)c2=O)c1OCc1ccc(C(F)(F)F)cc1 (stereo not drawn) [IV-137] | 4 (70 to less than 90% of herbicidal effect and crop phytotoxicity) | 4 (70 to less than 90% of herbicidal effect and crop phytotoxicity) | 3 (50 to less than 70% of herbicidal effect and crop phytotoxicity)
20 | Cc1cccc(COc2c(C(=O)c3ccc(C(F)(F)F)n(CC4CCCO4)c3=O)cnn2C)n1 (stereo not drawn) [IV-138] | 5 (90% or more of herbicidal effect and crop phytotoxicity) | 5 (90% or more of herbicidal effect and crop phytotoxicity) | 5 (90% or more of herbicidal effect and crop phytotoxicity)
21 | Cc1ccc(S(=O)(=O)Oc2c(C(=O)c3ccc(C(F)(F)F)n(CC4CCCO4)c3=O)cnn2C)cc1 (stereo not drawn) [IV-141] | 5 (90% or more of herbicidal effect and crop phytotoxicity) | 5 (90% or more of herbicidal effect and crop phytotoxicity) | 5 (90% or more of herbicidal effect and crop phytotoxicity)
22 | Cn1ncc(C(=O)c2ccc(C(F)(F)F)n(C)c2=O)c1OCc1ccc(Cl)cc1 [IV-191] | 5 (90% or more of herbicidal effect and crop phytotoxicity) | 5 (90% or more of herbicidal effect and crop phytotoxicity) | 5 (90% or more of herbicidal effect and crop phytotoxicity)
23 | Cn1ncc(C(=O)c2ccc(C(F)(F)F)n(C)c2=O)c1OCc1ccc(C(C)(C)C)cc1 [IV-192] | 5 (90% or more of herbicidal effect and crop phytotoxicity) | 5 (90% or more of herbicidal effect and crop phytotoxicity) | 5 (90% or more of herbicidal effect and crop phytotoxicity)
24 | Cc1ccc(S(=O)(=O)Oc2c(C(=O)c3ccc(C(F)(F)F)n(C)c3=O)cnn2C)cc1 [IV-194, 4-[1,2-dihydro-1-methyl-2-oxo-6-(trifluoromethyl)pyridine-3-carbonyl]-1-methyl-5-tosyloxy-1H-pyrazole] | 5 (90% or more of herbicidal effect and crop phytotoxicity) | 5 (90% or more of herbicidal effect and crop phytotoxicity) | 5 (90% or more of herbicidal effect and crop phytotoxicity)
